SMILES strings stand for the structures.

The target of assay [1] is Serine/threonine-protein kinase PLK1 (Homo sapiens) (UniProt P53350). Nature of the assay: Residual activity of PLK1 at 10 uM by microplate scintillation counting.
Assay [2] deals with RAC-alpha serine/threonine-protein kinase (Homo sapiens) (UniProt P31749). Nature of the assay: Residual activity of AKT1 at 0.1 uM by microplate scintillation counting.
Assay [3] deals with Serine/threonine-protein kinase MARK2 (Homo sapiens) (UniProt Q7KZI7). Nature of the assay: Residual activity of MARK2 at 10 uM by microplate scintillation counting.
Sequence of Serine/threonine-protein kinase MARK2 (Homo sapiens) (Q7KZI7 whole entry): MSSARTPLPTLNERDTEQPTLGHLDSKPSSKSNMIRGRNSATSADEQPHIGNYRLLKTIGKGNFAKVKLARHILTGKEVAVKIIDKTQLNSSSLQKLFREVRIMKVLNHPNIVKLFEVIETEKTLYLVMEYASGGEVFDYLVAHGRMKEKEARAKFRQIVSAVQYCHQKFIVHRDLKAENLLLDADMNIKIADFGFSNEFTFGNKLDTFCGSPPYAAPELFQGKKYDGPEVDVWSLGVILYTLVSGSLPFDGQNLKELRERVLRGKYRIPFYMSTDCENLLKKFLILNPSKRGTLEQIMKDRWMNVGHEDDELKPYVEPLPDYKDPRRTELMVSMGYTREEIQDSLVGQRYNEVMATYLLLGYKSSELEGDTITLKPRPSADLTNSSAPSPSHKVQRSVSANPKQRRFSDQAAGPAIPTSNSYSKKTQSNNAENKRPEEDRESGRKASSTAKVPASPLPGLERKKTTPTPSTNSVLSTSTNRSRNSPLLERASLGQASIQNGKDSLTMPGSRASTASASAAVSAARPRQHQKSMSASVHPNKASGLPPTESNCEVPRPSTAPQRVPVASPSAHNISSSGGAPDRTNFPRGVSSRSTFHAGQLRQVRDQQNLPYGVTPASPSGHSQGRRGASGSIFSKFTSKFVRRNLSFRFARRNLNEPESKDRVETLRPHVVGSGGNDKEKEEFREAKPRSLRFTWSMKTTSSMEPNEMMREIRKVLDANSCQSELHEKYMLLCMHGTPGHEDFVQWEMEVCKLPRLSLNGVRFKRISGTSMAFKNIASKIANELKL
The target of assay [4] is Macrophage colony-stimulating factor 1 receptor (Homo sapiens) (UniProt P07333). Nature of the assay: Residual activity of CSF1R at 0.1 uM by microplate scintillation counting.
Assay [5] deals with Misshapen-like kinase 1 (Homo sapiens) (UniProt Q8N4C8). Nature of the assay: Residual activity of MINK1 at 1 uM by microplate scintillation counting.
Sequence of Misshapen-like kinase 1 (Homo sapiens) (Q8N4C8 whole entry, looked up): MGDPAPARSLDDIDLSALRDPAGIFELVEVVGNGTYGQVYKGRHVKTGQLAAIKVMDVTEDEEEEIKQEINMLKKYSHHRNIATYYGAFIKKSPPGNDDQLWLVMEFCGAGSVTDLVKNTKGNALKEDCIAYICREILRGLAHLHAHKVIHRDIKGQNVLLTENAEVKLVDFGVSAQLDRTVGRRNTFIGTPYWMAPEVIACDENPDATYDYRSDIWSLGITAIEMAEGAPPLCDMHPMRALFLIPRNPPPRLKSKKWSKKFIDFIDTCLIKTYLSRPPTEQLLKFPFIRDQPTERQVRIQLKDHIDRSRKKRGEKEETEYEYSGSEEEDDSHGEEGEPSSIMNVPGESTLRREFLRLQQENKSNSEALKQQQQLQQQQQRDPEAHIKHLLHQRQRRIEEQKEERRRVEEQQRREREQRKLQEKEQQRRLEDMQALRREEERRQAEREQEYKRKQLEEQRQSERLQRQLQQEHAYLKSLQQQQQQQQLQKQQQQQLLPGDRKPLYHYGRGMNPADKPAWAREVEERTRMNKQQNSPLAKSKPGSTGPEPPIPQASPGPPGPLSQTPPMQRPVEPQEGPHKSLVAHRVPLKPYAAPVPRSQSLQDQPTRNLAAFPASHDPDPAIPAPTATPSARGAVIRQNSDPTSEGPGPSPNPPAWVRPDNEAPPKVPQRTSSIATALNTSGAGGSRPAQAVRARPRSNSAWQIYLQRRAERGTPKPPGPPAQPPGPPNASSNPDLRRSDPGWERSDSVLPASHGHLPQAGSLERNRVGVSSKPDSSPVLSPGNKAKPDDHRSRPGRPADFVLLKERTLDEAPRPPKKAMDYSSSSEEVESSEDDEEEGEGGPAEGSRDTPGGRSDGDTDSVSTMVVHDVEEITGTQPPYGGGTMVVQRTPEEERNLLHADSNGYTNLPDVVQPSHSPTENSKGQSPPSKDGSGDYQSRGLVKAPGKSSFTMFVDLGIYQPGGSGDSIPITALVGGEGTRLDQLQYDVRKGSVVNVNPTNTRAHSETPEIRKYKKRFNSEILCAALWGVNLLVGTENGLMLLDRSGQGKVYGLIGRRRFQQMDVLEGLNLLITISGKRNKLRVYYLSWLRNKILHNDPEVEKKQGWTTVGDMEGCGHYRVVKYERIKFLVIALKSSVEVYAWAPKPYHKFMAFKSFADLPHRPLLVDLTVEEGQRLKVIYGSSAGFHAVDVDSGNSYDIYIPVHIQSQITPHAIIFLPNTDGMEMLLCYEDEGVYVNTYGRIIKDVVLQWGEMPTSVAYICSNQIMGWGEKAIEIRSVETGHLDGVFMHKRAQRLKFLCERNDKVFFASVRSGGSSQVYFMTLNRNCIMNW
Assay [6] has as its system T1, Receptor-type tyrosine-protein kinase FLT3 (Homo sapiens), P36888 [D835Y].
T1 sequence (whole entry): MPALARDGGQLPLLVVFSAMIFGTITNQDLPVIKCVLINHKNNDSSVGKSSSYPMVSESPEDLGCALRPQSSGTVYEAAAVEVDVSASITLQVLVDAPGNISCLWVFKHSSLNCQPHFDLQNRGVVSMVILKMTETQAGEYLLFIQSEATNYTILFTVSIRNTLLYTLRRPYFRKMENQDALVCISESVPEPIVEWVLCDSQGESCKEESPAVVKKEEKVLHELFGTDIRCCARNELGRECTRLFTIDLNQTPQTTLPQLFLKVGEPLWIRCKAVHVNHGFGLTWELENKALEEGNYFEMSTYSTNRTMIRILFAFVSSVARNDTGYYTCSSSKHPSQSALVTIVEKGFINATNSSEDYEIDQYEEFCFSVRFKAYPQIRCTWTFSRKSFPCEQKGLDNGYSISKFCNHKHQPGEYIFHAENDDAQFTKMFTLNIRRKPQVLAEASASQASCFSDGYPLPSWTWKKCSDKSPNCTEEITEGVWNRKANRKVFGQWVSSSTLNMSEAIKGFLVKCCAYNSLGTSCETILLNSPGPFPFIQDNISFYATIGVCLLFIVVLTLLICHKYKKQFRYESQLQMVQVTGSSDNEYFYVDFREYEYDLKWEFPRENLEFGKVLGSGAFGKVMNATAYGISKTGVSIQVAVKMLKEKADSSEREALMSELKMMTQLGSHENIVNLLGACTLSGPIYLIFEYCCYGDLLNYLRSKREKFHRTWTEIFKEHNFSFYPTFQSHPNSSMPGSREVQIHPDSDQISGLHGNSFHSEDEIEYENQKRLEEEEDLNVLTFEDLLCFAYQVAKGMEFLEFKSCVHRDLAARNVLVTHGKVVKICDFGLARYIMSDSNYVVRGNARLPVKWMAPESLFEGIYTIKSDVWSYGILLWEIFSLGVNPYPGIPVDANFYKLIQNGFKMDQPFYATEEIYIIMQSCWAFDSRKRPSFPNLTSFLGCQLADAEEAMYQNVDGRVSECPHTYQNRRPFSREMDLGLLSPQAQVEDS
Nature of the assay: Residual activity of FLT3 D835Y mutant at 1 uM by microplate scintillation counting.

The target in assay [7] is T2, Ephrin type-A receptor 3 (Homo sapiens) (UniProt P29320).
T2 sequence (whole entry): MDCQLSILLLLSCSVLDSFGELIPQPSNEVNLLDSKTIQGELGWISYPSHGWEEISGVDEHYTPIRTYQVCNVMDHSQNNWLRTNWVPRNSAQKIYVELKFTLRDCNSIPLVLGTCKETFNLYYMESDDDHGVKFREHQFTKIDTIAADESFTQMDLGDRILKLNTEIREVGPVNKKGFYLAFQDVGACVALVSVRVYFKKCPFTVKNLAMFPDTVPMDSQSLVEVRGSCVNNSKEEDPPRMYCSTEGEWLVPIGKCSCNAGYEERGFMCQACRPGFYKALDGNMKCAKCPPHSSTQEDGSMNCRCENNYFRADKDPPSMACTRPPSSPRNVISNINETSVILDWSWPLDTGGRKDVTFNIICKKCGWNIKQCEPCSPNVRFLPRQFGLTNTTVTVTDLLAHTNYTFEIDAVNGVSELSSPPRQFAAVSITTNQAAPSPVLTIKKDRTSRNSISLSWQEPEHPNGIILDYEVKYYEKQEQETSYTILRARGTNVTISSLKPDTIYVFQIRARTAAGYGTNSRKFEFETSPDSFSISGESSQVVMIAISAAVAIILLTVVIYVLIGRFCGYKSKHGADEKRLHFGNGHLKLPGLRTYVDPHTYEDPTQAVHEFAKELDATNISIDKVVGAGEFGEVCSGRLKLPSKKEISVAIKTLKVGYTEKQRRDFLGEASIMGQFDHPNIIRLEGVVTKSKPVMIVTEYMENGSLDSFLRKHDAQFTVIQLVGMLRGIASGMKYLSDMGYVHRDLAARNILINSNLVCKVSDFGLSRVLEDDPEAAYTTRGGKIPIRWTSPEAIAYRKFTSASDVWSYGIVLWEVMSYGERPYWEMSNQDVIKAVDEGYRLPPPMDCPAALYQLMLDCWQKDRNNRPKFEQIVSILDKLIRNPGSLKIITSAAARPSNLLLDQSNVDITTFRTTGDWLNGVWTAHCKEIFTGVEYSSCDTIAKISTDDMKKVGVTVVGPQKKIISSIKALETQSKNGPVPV
Nature of the assay: Residual activity of EPHA3 at 0.1 uM by microplate scintillation counting.

Assay [8] deals with PAS domain-containing serine/threonine-protein kinase (Homo sapiens) (UniProt Q96RG2). Description: Residual activity of PASK at 0.1 uM by microplate scintillation counting.
Sequence of PAS domain-containing serine/threonine-protein kinase (Homo sapiens) (Q96RG2 whole entry, the tested form may be a part): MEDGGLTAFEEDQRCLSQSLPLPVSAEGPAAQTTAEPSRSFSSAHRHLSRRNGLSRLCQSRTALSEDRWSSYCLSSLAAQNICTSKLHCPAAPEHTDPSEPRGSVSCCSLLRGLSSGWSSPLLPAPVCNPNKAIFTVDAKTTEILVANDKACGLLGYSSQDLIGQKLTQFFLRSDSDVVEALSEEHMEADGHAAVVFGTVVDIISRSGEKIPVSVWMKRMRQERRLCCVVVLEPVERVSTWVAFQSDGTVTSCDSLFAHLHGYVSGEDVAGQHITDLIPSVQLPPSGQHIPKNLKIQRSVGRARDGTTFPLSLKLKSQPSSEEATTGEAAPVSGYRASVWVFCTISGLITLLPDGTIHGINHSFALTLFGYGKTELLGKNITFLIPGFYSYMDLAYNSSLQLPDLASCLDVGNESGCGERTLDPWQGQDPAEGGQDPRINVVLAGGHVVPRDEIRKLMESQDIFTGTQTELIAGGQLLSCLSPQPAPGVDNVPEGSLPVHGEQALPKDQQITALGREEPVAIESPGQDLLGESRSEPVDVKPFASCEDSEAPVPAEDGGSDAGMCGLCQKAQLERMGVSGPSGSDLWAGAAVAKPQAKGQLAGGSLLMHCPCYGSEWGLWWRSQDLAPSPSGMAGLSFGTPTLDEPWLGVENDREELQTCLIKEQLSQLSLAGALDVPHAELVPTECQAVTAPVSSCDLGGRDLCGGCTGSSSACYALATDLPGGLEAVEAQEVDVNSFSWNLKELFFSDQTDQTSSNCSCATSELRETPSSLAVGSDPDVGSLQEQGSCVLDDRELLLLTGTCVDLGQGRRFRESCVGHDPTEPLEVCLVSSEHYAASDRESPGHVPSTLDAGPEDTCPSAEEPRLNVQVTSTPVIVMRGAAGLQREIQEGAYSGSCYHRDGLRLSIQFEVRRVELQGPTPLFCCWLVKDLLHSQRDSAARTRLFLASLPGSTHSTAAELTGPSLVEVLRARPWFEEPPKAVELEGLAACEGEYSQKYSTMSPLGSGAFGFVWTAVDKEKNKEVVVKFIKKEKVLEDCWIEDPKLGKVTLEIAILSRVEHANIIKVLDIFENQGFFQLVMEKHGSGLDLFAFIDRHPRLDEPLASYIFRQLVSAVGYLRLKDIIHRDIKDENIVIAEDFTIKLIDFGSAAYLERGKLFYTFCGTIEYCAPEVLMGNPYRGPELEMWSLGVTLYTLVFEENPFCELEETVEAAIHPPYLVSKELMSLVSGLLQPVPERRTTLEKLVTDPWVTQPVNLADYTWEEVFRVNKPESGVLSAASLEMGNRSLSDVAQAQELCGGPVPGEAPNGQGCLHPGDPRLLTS
Assay [9] concerns the target Proto-oncogene tyrosine-protein kinase ROS (Homo sapiens) (UniProt P08922). Description: Residual activity of ROS at 0.1 uM by microplate scintillation counting.
For assay [10], the target named is Dual specificity mitogen-activated protein kinase kinase 1 (Homo sapiens) (UniProt Q02750). Description: Residual activity of wild type MEK1 at 10 uM by microplate scintillation counting.
Sequence of Dual specificity mitogen-activated protein kinase kinase 1 (Homo sapiens) (Q02750 whole entry): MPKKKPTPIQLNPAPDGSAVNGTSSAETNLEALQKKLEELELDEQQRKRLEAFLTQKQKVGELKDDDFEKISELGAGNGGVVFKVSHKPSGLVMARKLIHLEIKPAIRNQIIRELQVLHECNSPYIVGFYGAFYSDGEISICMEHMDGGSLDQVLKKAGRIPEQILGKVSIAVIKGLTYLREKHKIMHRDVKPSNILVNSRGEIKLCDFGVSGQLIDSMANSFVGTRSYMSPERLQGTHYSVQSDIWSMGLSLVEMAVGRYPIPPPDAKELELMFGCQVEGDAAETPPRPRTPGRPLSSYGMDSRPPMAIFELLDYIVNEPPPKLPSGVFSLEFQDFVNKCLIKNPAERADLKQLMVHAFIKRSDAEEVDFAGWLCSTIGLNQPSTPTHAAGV

Sequence of Serine/threonine-protein kinase PLK1 (Homo sapiens) (P53350 whole entry): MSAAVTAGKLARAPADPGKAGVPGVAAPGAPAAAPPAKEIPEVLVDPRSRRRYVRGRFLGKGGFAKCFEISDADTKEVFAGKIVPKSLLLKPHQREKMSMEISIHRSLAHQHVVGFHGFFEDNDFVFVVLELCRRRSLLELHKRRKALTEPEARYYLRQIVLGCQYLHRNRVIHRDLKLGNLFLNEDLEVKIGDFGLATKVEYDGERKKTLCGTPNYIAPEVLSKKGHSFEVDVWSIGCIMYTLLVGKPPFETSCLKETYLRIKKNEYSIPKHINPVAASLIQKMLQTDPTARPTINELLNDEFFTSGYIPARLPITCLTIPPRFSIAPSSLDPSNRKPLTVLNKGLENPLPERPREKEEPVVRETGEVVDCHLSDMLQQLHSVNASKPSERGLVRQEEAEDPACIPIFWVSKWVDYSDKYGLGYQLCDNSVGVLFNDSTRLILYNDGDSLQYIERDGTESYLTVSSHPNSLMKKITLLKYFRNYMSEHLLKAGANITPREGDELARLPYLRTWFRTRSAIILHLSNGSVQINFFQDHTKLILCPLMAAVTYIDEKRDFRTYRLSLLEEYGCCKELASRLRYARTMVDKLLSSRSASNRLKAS
Sequence of RAC-alpha serine/threonine-protein kinase (Homo sapiens) (P31749 whole entry): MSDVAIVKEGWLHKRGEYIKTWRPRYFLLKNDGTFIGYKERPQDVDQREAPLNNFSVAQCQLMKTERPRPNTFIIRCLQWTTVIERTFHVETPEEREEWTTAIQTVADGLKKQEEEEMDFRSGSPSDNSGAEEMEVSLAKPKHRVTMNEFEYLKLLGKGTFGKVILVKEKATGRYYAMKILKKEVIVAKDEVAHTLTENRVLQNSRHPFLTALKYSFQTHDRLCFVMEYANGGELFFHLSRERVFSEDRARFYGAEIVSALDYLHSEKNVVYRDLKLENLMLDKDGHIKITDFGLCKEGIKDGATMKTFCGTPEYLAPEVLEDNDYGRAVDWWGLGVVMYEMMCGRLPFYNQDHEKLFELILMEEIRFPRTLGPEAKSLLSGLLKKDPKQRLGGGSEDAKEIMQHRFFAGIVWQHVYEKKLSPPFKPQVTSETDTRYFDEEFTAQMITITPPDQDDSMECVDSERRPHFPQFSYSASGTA

Turning to `COc1cc2c(Oc3ccc(-c4nc5ccccc5s4)cc3F)ncnc2cc1OCCCN1CCN(C)CC1`, the residual activity in [1] stood at 100%; in [2], 100%; in assay [3], 60%; in [4] it was 88%; in [5], 73%; in assay [6], 78%. Further, the residual activity in [7] came to 106%; in assay [8], 89%; in assay [9], 98%; in assay [10], 3%.

As for `COc1cc2c(Oc3ccc(-c4nc5ccccc5s4)cc3)ncnc2cc1OCCCN1CCN(C)CC1`, the residual activity in assay [1] was 134%; in assay [2], 102%; in assay [3] it was 67%; in assay [4], 93%; in assay [5], 85%; in [6], 95%. In addition, the residual activity was 92% in assay [7], 92% in assay [8], 91% in [9] and 26% in assay [10].

For the compound `COc1cc2c(Oc3ccc(-c4nc5ccccc5s4)cc3)ncnc2cc1OCCCN1CCCC1`, the residual activity in assay [1] came to 123%; in [2], 91%; in assay [3] it was 72%; in assay [4], 120%; in assay [5], 86%; in assay [6] it was 90%. Moreover, the residual activity in assay [7] came out at 104%; in [8] it was 99%; in [9], 84%; in assay [10], 15%.

The record behind these values is ChEMBL document CHEMBL1152560, “Substituted 2-arylbenzothiazoles as kinase inhibitors: hit-to-lead optimization” (Bioorg Med Chem, 2009).
